# Experimental data reported in PubChem BioAssay (NCI).
# “And” between values parts separate entries of the source, which are not always exact repeats. Identical values can stand only once.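 Growth conditions: 96-well plates. Treatment: test compound, 48 hours, 5 concentrations. Analysis: linear interpolation between bracketing concentrations; unreached endpoints set to highest concentration. Here, GI50 denotes the concentration required for 50% inhibition of growth. The concentration for full growth arrest is given as TGI.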
# Experiments:
# Experiment in all cases: inhibition of tumour cell growth, NCI panel, 48 h
# UACC-62 melanoma = system: UACC-62 melanoma
# OVCAR-8 ovarian = system: OVCAR-8 ovarian
# SK-MEL-5 melanoma = system: SK-MEL-5 melanoma
# BT-549 breast = system: BT-549 breast
# SN12C renal = system: SN12C renal
# U251 CNS = system: U251 CNS
# ACHN renal = system: ACHN renal
# 786-0 renal = system: 786-0 renal
# HS 578T breast = system: HS 578T breast
# OVCAR-4 ovarian = system: OVCAR-4 ovarian
Structure (SMILES),GI50 (UACC-62 melanoma) [µM],TGI (UACC-62 melanoma),GI50 (OVCAR-8 ovarian),TGI (OVCAR-8 ovarian) [µM],GI50 (SK-MEL-5 melanoma),TGI (SK-MEL-5 melanoma),GI50 (BT-549 breast) [µM],TGI (BT-549 breast),GI50 (SN12C renal),TGI (SN12C renal) [µM],GI50 (U251 CNS) [µM],TGI (U251 CNS) [µM],GI50 (ACHN renal) [µM],TGI (ACHN renal) [µM],GI50 (786-0 renal) [µM],TGI (786-0 renal),GI50 (HS 578T breast),TGI (HS 578T breast) [µM],GI50 (OVCAR-4 ovarian),TGI (OVCAR-4 ovarian) [µM]
O=C1c2cccc3c([N+](=O)[O-])ccc(c23)C(=O)N1CCCCl,4.48,> 10 µM,3.86 µM,> 10,> 10 µM,> 10 µM,4.82,> 10 µM,5 µM,> 10,> 10,> 10,> 10,> 10,> 10,> 10 µM,4.6 µM,> 10,4.77 µM,> 10
CC(C)C[C@H](NC(=O)[C@H](Cc1ccccc1)NC(=O)c1cnccn1)B(O)O,0.00149,< 0.0168 µM and 0.00498 µM,0.0175 µM and 0.00427 µM,–,< 0.01 µM and 0.0014 µM,0.014 µM and 0.00411 µM,0.00103,< 0.0139 µM and 0.00341 µM,< 0.0114 µM and 0.00194 µM,–,0.00256,–,0.00181,–,0.00245,0.381 µM and 0.0967 µM and 0.411 µM,< 0.01 µM and 0.00192 µM,–,< 0.0113 µM and 0.00315 µM,0.179
Nc1ncnc2c1ncn2C1OC(CO)CC1O (centres undefined),–,> 100 µM,–,49.6,–,> 100 µM,–,92 µM,–,80.2,–,> 100,–,> 100,–,45.8 µM,–,82.2,–,> 100
C=C(C)[C@@H]1CC[C@]2(C(=O)N3CCN(C)CC3)CC[C@]3(C)[C@H](CC[C@@H]4[C@@]5(C)C/C(=C/c6ccncc6)[C@H](O)C(C)(C)[C@@H]5CC[C@]43C)[C@@H]12,10.2,27.9 µM,7.68 µM,30.7,5.98 µM,18.5 µM,4.33,24.7 µM,6.22 µM,22.3,5.64,19.6,6.6,> 100,2.71,13.3 µM,11.6 µM,> 100,7.08 µM,> 100
S=P(C1CCCCC1)(C1CCCCC1)C(c1cccnc1)N1CCCC1 (centres undefined),–,52.5 µM,–,51.7,–,31.9 µM,–,35.6 µM,–,33.1,–,46.6,–,34.7,–,31.5 µM,–,84.3,–,55.7
COc1cc(/C=C/C(=O)c2ccc(F)cc2)ccc1OCCCCOc1cc2c(cc1OC)C(=O)N1CCCC1C=N2 (centres undefined),0.777,11.4 µM,1.55 µM,> 20.2,0.758 µM,5.37 µM,0.855,–,1.68 µM,15.9,0.704,7.85,1.07,> 20.5,0.989,7.74 µM,0.336 µM,9.36,2.99 µM,> 23.9
COc1ccc(-c2cc(=O)c3c(OC)c(O)c(OC)cc3o2)cc1,–,> 100 µM,–,> 100,–,94.9 µM,–,> 100 µM,–,> 100,–,> 100,–,> 100,–,> 100 µM,–,> 100,–,> 100
CS(=O)(=O)c1nccc(-c2c(-c3cccc(OCc4ccccc4)c3)nc3sccn23)n1,13.8,> 100 µM,> 27.4 µM,> 100,1.39 µM,10 µM,11.6,> 100 µM,26.2 µM,> 100,19.6,> 100,36.4,> 100,12.9,> 100 µM,12.9 µM,> 100,9.97 µM,> 100
COc1ccc2c(c1)O/C(=C\c1ccc([N+](=O)[O-])o1)C2=O,1.59,3.54 µM,1.41 µM,7.46,1.56 µM,3.08 µM,1.56,3.07 µM,2.45 µM,> 100,1.98,6.56,0.625,2.69,1.99,4.83 µM,2.36 µM,7.32,1.87 µM,6.5
CCCCCCCCCCCCCCCCSS(C)(=O)=O,–,> 57.5 µM,–,58.7,–,59 µM,–,> 100 µM,–,> 69.5,–,> 100,–,32.3,–,27 µM,–,> 100,–,54.7
CCC1CCC2C3CC=C4CC(OC(C)=O)C(N)CC4(C)C3CCC12C (centres undefined),–,9.32 µM,–,6.75,–,3.7 µM,–,10.6 µM,–,9.87,–,3.68,–,17.6,–,3.79 µM,–,5.1,–,18
O=S1(=O)OCc2ccccc21,–,> 100 µM,–,> 100,–,> 100 µM,–,> 100 µM,–,> 100,–,> 100,–,> 100,–,> 100 µM,–,> 100,–,> 100
O=c1[nH]ccc2nc(N3CCC(O)CC3)nc(Nc3ccc(N4CCOCC4)cc3)c12,20.5,> 100 µM,> 100 µM,> 100,3.69 µM,> 50.8 µM,2.31,> 46.5 µM,2.55 µM,> 100,> 81,> 100,0.797,> 100,> 22.6,> 100 µM,2.01 µM,9.03,> 100 µM,> 100
COc1ccccc1CN=C1NC(=O)/C(=C/c2ccc3ncccc3c2)S1,8.61,> 25 µM,8.17 µM,> 25,12.4 µM,> 21.5 µM,5.18,14 µM,7.8 µM,> 25,4.51,> 16.1,7.49,> 25,10.9,> 25 µM,6.61 µM,> 24.1,8.88 µM,> 25
N#Cc1c(N)n(C2OC(CO)C(O)C2O)c2ncnc(N)c12 (centres undefined),–,0.0941 µM,–,0.279,–,0.279 µM,–,2.13 µM,–,0.856,–,> 78.2,–,0.417,–,5.55 µM,–,2.16,–,> 100
O=C(CC(O)c1cccnc1)CC(O)c1cccnc1 (centres undefined),–,32.2 µM,–,35.7,–,32.2 µM,–,25.6 µM,–,38.8,–,33,–,35.3,–,39.2 µM,–,> 100,–,40.9
